Measured values: patent publication US8071810B2, “C5a receptor antagonists” (Jerini AG, priority 2005, dated 2011)
≈ marks a conversion by molar mass, not a printed value.

Legend:
[1] = molecular target: T1, human C5a receptor (CD88) (Homo sapiens, UniProt P21730); experiment: C5a induced enzyme (glucosaminidase) release assay in RBL cells expressing the human C5a receptor (Example 28); type: cell-based; conditions: inhibition of C5a induced enzyme release, RBL cells with human C5aR; read-out: Activity-range (antagonistic activity, IC50 enzyme release)
T1 construct: expressed in transfected cells; host or cells: rat basophilic leukemia (RBL) cells, stably transfected
T1 sequence (P21730 1-350): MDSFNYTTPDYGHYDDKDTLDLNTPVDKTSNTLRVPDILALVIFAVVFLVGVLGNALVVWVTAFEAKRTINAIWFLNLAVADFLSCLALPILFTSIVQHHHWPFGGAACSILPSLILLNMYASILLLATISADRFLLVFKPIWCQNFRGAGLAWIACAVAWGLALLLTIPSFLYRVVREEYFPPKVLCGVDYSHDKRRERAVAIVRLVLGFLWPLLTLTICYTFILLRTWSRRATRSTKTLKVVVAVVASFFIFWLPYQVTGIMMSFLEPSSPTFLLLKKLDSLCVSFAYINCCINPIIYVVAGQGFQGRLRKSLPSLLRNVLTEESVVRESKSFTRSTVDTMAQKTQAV
Outline: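 Rat basophilic leukemia (RBL) cells expressing human C5a receptor, at 2×10^6 cells/ml, primed with cytochalasin B, then incubated with test compound 10 min at 37 °C.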

[2] = Solubility in aqueous HEPES buffer by HPLC (Example 33); type: physicochemical; conditions: kinetic from dmso stock
Description: To determine the solubility the compound to be measured is dissolved (e.g, […] of a 5 mM solution in DMSO) in organic solvent (e.g. 198 μl DMSO) as well as in aqueous buffer solution (e.g. 198 μl HEPES buffer). Both solutions are analyzed via analytical HPLC and the areas under the peaks are compared. The value for the organic solution is taken as 100%.

[3] = molecular target: T2, C5a receptor (Homo sapiens, UniProt P21730); experiment: Binding of 125I-C5a to human C5aR transfected HEK293 cells (Example 27); set-up: expressed in transfected cells; host or cells: HEK293 cells; conditions: 125I-C5a tracer, read-out: IC50 for the inhibition of the binding of C5a to the C5a receptor
T2 sequence (P21730 1-350): T1 sequence (P21730 1-350)
Description: The binding studies are done as determination of IC50 values with radioactively labeled C5a (125I) as tracer. For this purpose, human C5aR transfected HEK293 cells are adjusted to a concentration of […]. 30 μl of the cell suspension are added into a microtiter plate. Then the C5a receptor antagonists are added followed by 10 minutes pre-incubation at room temperature. After that, 10 μl of labelled C5a are added (15.000 cpm). The mixture is now incubated over ice for 30 minutes. After this the cells are isolated by means of a filter plate (Millipore MHVB 4510) and washed two times with 100 μl HAG-CM each (see example 32). The cells are dried and, after transferring the filter plate onto the adapter plate (Canberra 6005178), 50 μl/well Microscint 0 are added and the plate is measured in the scintillation counter.

[4] = AB permeability in TC-7 cell based assay (Example 34); type: in vitro ADME; conditions: human, Caco-2, TC-7 cells, apical pH 6.5 / basolateral pH 7.4, 120 min
Description: Compounds to be tested are prepared at a concentration of 50 μM in HBSS-MES (5 mM, pH 6.5) (from a 10 mM stock solution in 100% DMSO). ^14C-mannitol (about 4 μM) is added and the solution is mixed and centrifuged. The supernatant is added to the apical side of a TC-7 cell culture (passage 15, in 24 well transwell plate) to obtain a DMSO concentration of 1%. At the basolateral side HBSS-HEPES (5 mM, pH 7.4) is placed. Subsequently, the cells are incubated for 120 minutes at 37° C. The integrity of the TC-7 cell layer is checked by means of the added mannitol (Papp <2.5 10^−6 cm/s). The Permeabilität Papp [cm/s] is equal to (VR×CR120)/(Δt×A×(CD,mid−CR,mid)). VR is the volume of the receiver chamber, CR120 the concentration the test compound in the receiver chamber after 120 minutes, Δt the incubation time, A the area of the TC-7 cell layer, CD,mid the midpoint concentration of the test substance in the donor chamber and CR,mid the concentration of the test compound in the receiver chamber.

Row | Compound | IC50 [1] [nM] | solubility [2] [µM] | IC50 [3] [nM] | Papp A→B at 120 min, 50 μM [4] [×10⁻⁶ cm/s]
1 | CCc1c(N)cc(Cl)c(CC)c1NC(=O)N(Cc1ccc(Cl)cc1)c1ccc(CC(F)(F)F)cc1 [compound 103, 3-(3-amino-5-chloro-2,6-diethyl-phenyl)-1-(4-chloro-benzyl)-1-[4-(2,2,2-trifluoro-ethyl)-phenyl]-urea] | 60 to 200 | 7 (≈ 3.67 µg/mL) | 58.6 | –
2 | CCc1ccc(N(Cc2ccc(C)nc2)C(=O)Nc2c(CC)c(N)cc(Cl)c2CC)cc1 [compound 106, 3-(3-amino-5-chloro-2,6-diethyl-phenyl)-1-(4-ethyl-phenyl)-1-(6-methyl-pyridin-3-ylmethyl)-urea] | 60 to 200 | 83 (≈ 37.4 µg/mL) | – | 22.3
3 | CCc1ccc(N(C(=O)Nc2c(CC)c(N)cc(Cl)c2CC)C(C)c2ccc3c(c2)ncn3C)cc1 (stereo not drawn) [compound 122, 3-(3-amino-5-chloro-2,6-diethyl-phenyl)-1-(4-ethyl-phenyl)-1-[1-(1-methyl-1H-benzoimidazol-5-yl)-ethyl]-urea] | 60 to 200 | 29 (≈ 14.6 µg/mL) | – | 3.5
